Test results from ChEMBL document CHEMBL5154677, “On-Demand Activation of a Bioorthogonal Prodrug of SN-38 with Fast Reaction Kinetics and High Releasing Efficiency In Vivo” (J Med Chem, 2022).
Converted amounts (≈) assume the structure as drawn.

Legend:
[1] = Dissociation constant , pKa of the compound; type: physicochemical
[2] = Prodrug activation in human A549 cells xenografted in nude mouse assessed as drug release by measuring increase in yellow fluorescence at 5 mg/kg, iv administered every 5 mins for 1 hr by FITC staining based confocal laser scanning microscopy; type: organism-based; conditions: in vivo
[3] = Prodrug activation in human A549 cells xenografted in nude mouse assessed as drug release by measuring increase in yellow fluorescence at 5 mg/kg, iv in presence of bis(pinacolato)diboron administered every 5 mins for 1 hr by FITC staining based confocal laser scanning microscopy; type: organism-based; conditions: in vivo
A549 [4] = assay: Cytotoxicity against human A549 cells assessed as reduction in cell viability measured after 72 hrs by CCK-8 assay; type: functional, cell-based; conditions: A549, 72 h
[5] = Prodrug activation in human A549 cells assessed as SN-38 release by measuring increase in blue fluorescence intensity at 100 uM in presence of bis(pinacolato)diboron incubated for 1 hr by DAPI staining based confocal fluorescence microscopy; type: cell-based; conditions: a549, 1 h
[6] = Stability of prodrug in PBS at pH 7.4 assessed as retention time of drug released measured after 24 hrs by LC-MS analysis; type: physicochemical; conditions: buffer, pH 7.4, 24 h
A549 [7] = assay: Cytotoxicity against human A549 cells assessed as reduction in cell viability incubated for 72 hrs in presence of bis(pinacolato)diboron by CCK-8 assay; type: functional, cell-based; conditions: A549, 72 h
[8] = Drug uptake in human A549 cells assessed as drug internalization by measuring increase in fluorescence intensity at 100 uM incubated for 1 hr by FITC staining based confocal fluorescence microscopy; type: ADME, cell-based; conditions: a549, 1 h
[9] = Stability of the prodrug in PBS at pH 6.5 assessed as suppression of hydrolytic opening of the lactone ring by LC-MS analysis; type: physicochemical; conditions: buffer
[10] = Prodrug activation in human A549 cells assessed as reduction in blue fluorescence at 100 nM incubated for 72 to 120 hrs using DAPI staining based laser confocal fluorescence microscopy; type: cell-based; conditions: a549, 0.1 µM, time 72-120 hrs
A549 [11] = assay: Cytotoxicity against human A549 cells assessed as cell growth inhibition incubated for 120 hrs in presence of bis(pinacolato)diboron by CCK-8 assay; type: functional, cell-based; conditions: A549, 120 h
[12] = Drug uptake in human A549 cells assessed as drug internalization by measuring blue fluorescence at 100 uM incubated for 1 hr by DAPI staining based confocal fluorescence microscopy; type: ADME, cell-based; conditions: a549, 1 h
A549 [13] = assay: Cytotoxicity against human A549 cells assessed as cell growth inhibition incubated for 120 hrs by CCK-8 assay; type: functional, cell-based; conditions: A549, 120 h
[14] = Cytotoxicity against HEK293T cells assessed as reduction in cell viability measured after 72 hrs by CCK-8 assay; type: toxicity, cell-based, HEK-293T; conditions: human
[15] = Prodrug activation in human A549 cells assessed as increase in yellow fluorescence at 100 nM incubated for 72 to 120 hrs using FITC staining based laser confocal fluorescence microscopy; type: cell-based; conditions: a549, 0.1 µM, time 72-120 hrs
[16] = Solubility of compound in PBS; type: physicochemical; conditions: buffer
[17] = Prodrug activation in human A549 cells xenografted in nude mouse assessed as drug release by measuring reduction in blue fluorescence at 5 mg/kg, iv in presence of bis(pinacolato)diboron administered every 5 mins for 1 hr by DAPI staining based confocal laser scanning microscopy; type: organism-based; conditions: in vivo
[18] = Prodrug activation in human A549 cells assessed as SN-38 release by measuring increase in yellow fluorescence at 100 uM in presence of bis(pinacolato)diboron incubated for 1 hr by FITC staining based confocal fluorescence microscopy; type: cell-based; conditions: a549, 1 h
[19] = Stability of prodrug in PBS at pH 7.4 assessed as 7-hydroxylcoumarin formation at 1 uM measured after 24 hrs by HPLC analysis; type: physicochemical; conditions: buffer, pH 7.4, 24 h

## Nc1ccc(CO)cc1
[1]
  pKa: 9.68

## CCc1c2c(nc3ccc(OCc4ccc([N+](C)(C)[O-])cc4)cc13)-c1cc3c(c(=O)n1C2)COC(=O)[C@]3(O)CC
[2]
  Drug metabolism: Metabolite_Notdetected
[3]
  Drug metabolism: Metabolite_Detected
A549 [4]
  IC50: 128 nM
[5]
  Drug metabolism: Metabolite_Detected
[6]
  Retention_time: 1.8 min
A549 [7]
  IC50: 29.6 nM
[8]
  Drug uptake: Active
[9]
  Stability: Stable
[10]
  Drug metabolism: Metabolite_Detected
A549 [11]
  IC50: 9.2 nM
[12]
  Drug uptake: Active
A549 [13]
  IC50: 17.1 nM
[14]
  IC50 at 72 h: 66.3 nM
[15]
  Drug metabolism: Metabolite_Detected
[16]
  solubility: 3.2736 µM (≈ 1.77 µg/mL)
[17]
  Drug metabolism: Metabolite_Detected
[18]
  Drug metabolism: Metabolite_Detected

## CN(C)c1ccc(CO)cc1
[14]
  IC50 at 72 h: > 100000 nM

## C[N+](C)([O-])c1ccc(COc2ccc3ccc(=O)oc3c2)cc1
[19]
  Stability: Stable

## CCc1c2c(nc3ccc(O)cc13)-c1cc3c(c(=O)n1C2)COC(=O)[C@]3(O)CC [7-ETHYL-10-HYDROXYCAMPTOTHECIN]
A549 [4]
  IC50: 11.9 nM
[1]
  pKa: 9.2
A549 [13]
  IC50: 3.8 nM
[14]
  IC50 at 72 h: 14.2 nM
[16]
  solubility: 0.01101 µM (≈ 0.00432 µg/mL)
